ChEMBL document CHEMBL5375976, “Discovery of Inhibitory Fragments That Selectively Target Spire2-FMN2 Interaction” (J Med Chem, 2023)

Target: T1, Fermitin family homolog 2 (Homo sapiens) (UniProt Q96AC1)
T1 sequence (whole entry): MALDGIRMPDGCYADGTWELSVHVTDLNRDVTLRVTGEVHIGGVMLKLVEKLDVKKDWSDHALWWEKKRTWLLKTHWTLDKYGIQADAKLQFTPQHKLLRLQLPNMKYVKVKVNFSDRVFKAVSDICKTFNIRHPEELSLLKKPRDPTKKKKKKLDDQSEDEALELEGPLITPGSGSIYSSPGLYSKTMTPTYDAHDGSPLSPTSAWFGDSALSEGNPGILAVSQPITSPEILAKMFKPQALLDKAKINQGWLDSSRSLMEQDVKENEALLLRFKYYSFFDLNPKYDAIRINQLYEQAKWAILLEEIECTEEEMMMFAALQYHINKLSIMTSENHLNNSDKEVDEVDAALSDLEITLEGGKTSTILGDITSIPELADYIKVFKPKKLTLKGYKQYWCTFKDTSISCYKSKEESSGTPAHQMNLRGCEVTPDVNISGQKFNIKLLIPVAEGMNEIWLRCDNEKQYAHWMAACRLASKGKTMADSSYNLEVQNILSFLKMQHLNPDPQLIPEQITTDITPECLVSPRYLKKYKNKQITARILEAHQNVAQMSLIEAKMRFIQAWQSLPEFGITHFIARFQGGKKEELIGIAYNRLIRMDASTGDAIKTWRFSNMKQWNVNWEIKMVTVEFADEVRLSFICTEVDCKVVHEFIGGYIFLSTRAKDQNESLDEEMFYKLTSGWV
Description: Binding affinity to His6-tagged KIND2 (unknown origin) expressed in Escherichia coli BL21(DE3) assessed as change in melting temperature by DSF analysis

- ΔTm: 0 °C
SMILES: NCCNc1ccnc2cc(OCc3ccccc3)ccc12
